“And” between values parts separate entries of the source, which are not always exact repeats. Equal entries are not always repeated.
Target: T1, DrOTOP1 M133W (Danio rerio, UniProt Q7ZWK8, M133W)
T1 construct: A previously generated codon-optimized full-length DrOTOP1[8]; (UniProt: Q7ZWK8) construct; expressed in transfected cells; host or cells: HEK-293 (CRL-1573, ATCC)
T1 sequence (Q7ZWK8 1-586 M133W): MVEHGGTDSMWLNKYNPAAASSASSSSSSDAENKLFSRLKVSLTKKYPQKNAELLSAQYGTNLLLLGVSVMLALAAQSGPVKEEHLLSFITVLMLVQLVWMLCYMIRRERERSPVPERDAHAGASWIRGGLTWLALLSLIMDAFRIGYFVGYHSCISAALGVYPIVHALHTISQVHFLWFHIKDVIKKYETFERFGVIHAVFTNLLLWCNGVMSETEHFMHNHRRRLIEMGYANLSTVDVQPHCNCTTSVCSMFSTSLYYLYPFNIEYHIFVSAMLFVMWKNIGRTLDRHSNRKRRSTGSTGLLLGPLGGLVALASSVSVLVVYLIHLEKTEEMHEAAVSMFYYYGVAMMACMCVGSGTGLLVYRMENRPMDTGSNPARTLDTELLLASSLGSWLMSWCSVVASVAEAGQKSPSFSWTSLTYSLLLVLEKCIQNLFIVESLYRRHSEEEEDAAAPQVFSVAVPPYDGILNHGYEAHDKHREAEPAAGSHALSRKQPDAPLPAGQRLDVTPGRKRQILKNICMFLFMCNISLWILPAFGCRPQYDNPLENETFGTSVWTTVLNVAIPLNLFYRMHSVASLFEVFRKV
Assay: Whole-cell patch-clamp, inhibition of acid-evoked currents, DrOTOP1 M133W
Format: cell-based, zebrafish (Danio rerio)
Source text: To functionally test the significance of the two binding sites identified by cryo-EM, we generated point mutations of DrOTOP1 using the binding poses and conformational changes observed in DrOTOP1_C2.2 to guide our mutations. As per the binding pose that best fits our cryo-EM density, C2.2 forms the following interactions in the outer site: hydrophobic packing against many non-polar residues W126, G130, M133, L134, F271, F570, and M573, and π-stacking with W532 (Fig. 5A). In addition, C2.2 could potentially form H-bonds with E267, if the sidechain is protonated or a water bridge is present, and with H574 if it moves closer (Fig. 5A). Likewise, C2.36 presents a heterocyclic nitrogen that can potentially form a H-bond with E267, similarly, provided a protonation or water bridge is present (Fig. 5B). In addition, C2.36 forms a T-shaped π-stacking interaction with H574, whose sidechain has rotated 90 degrees (compared to DrOTOP1_apo), presumably to accommodate the interaction (Fig. 5B). Considering other inhibitors discovered from the second round of screening, many contain functional groups like the carbonyl groups of Group 1 molecules and the heterocyclic nitrogen atoms of Group 2 molecules (Supplementary Fig. 3E), that can potentially form similar H-bonds with E267 as C2.2 and C2.36, assuming the binding modes are similar. In the central site, C2.2 binds with the following interactions: hydrophobic packing with residues V201, F271, A274, V278, and A388, π-stacking with F277, and H-bonding with E384 (Fig. 5C).
Each non-aromatic residue was mutated to tryptophan, which was expected to cause steric occlusion. […]
Whole-cell patch-clamp recording was performed as previously described[6],[22],[25]. Recordings were made with an Axopatch 200B amplifier, digitized with a Digidata 1322a 16-bit data acquisition system, acquired with pClamp 8.2 and analyzed with Clampfit 10 (Molecular Devices). […]

SMILES | Inhibition of currents (100 µM, single cells) | Inhibition of currents (10 µM, single cells or mean, mean) | Inhibition of currents (10 µM, single cells or mean, single cells)
O=C(/C(=N\O)c1ccccc1)c1ccccc1 [C11, benzil monoxime] | 51.1084% and 50.3496% and 47.6418% and 59.4138% and 72.1088% | – | –
C=C(C)COc1ccccc1NC(=O)c1nc[nH]c1C [C2.2] | – | 71.39% | 74.2591% and 52.599% and 79.1509% and 79.3522% and 71.5803%
